Test systems include SNB-19 CNS; OVCAR-5 ovarian; HCT-15 colon; U251 CNS; NCI-H226 lung; SNB-75 CNS; OVCAR-4 ovarian; K-562 leukemia; SK-MEL-5 melanoma; A549 NSCLC.
What all share (assay): NCI tumour cell line growth inhibition, 48 h

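Grown in 96-well plates, cells were treated for 48 hours with each compound at five concentrations. Insufficient inhibition: endpoint recorded as highest concentration tested. At the GI50, growth is halved. TGI: concentration producing complete growth inhibition.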

Take `c1ccc2c(c1)N=C(c1ccc3ccccc3c1)CC(c1cccc3ccccc13)S2` (stereo not given): the TGI in the assay on SNB-19 CNS, with OVCAR-5 ovarian, in the assay on HCT-15 colon, in the assay on U251 CNS, in the assay with NCI-H226 lung and in the assay on SNB-75 CNS was over 100 µM throughout. The TGI in the assay with OVCAR-4 ovarian is over 100 µM; with K-562 leukemia it was 54 µM; in the assay with SK-MEL-5 melanoma, over 100 µM; in the assay with A549 NSCLC, over 100 µM.

As to `CC1COCCN1CC#CCOC(=O)c1cc2ccccc2oc1=O` (stereo not given), the GI50 is over 100 µM in the assay with SNB-19 CNS; over 100 µM in the assay with OVCAR-5 ovarian; over 100 µM in the assay with HCT-15 colon; over 100 µM in the assay on U251 CNS; over 100 µM with NCI-H226 lung; 83.4 µM in the assay on SNB-75 CNS. The GI50 with OVCAR-4 ovarian, with K-562 leukemia, in the assay with SK-MEL-5 melanoma and in the assay with A549 NSCLC was over 100 µM throughout. Also, the TGI in the assay with SNB-19 CNS, with OVCAR-5 ovarian, with HCT-15 colon, in the assay with U251 CNS, with NCI-H226 lung and with SNB-75 CNS was over 100 µM each time. Moreover, the TGI in the assay with OVCAR-4 ovarian, in the assay on K-562 leukemia, with SK-MEL-5 melanoma and with A549 NSCLC was over 100 µM in each case.
